# Test results from article PMC4368200, “Triclabendazole Sulfoxide Causes Stage-Dependent Embryolethality in Zebrafish and Mouse In Vitro” (PLoS ONE, 2015).
# “Also recorded” adds a separate entry of the source. Read-outs that look alike come from different tables or passages of the source. Marks after values point to notes of the source that are not given here.
# Columns and labels:
# zebrafish embryos = experiment: Zebrafish embryo test (ZFET); assay type: in vivo, Danio rerio; settings: for Dysmorphogenic embryos / Morphological score: 50 hpf
# Experimental: The day before the test, adult male and female zebrafish were transferred (1:1) to breeding tanks (Aquaneering, San Diego, California). Artificial plants and marbles were used as spawning substrate. Spawning and fertilization took place within 30 min after the onset of light in the morning. Eggs were collected and extensively cleaned with ISO-standard 7346 water diluted 1:5 using deionized water. Fertilized eggs were selected under a dissection stereomicroscope (Motic SMZ168, Motic China group, LTD., China). The eggs presenting overt anomalies like asymmetries, formation of vesicles or damaged membranes were discarded.
# Exposure and evaluation of eggs was performed as described before with slight variations. At 2 hours post-fertilization (hpf) fertilized eggs were selected and transferred to 6-well plates (Greiner Bio-one, Germany). Ten embryos were randomly distributed into wells and filled with 5 mL of freshly prepared test solutions. TCBZ, TCBZSO, ABZ and ABZSO were dissolved in DMSO and subsequently diluted in 0.3x Danieau’s buffer to a final DMSO concentration of 0.05% (v/v). Embryos were incubated at 26 ± 1°C with a dark-light cycle of 10–14 h for 48 h. Embryolethality was determined at 8 hpf on the basis of egg coagulation, at 26 hpf by the absence of tail detachment or somites formation, and at 50 hpf by the absence of heartbeat. Developmental and teratogenic effects were assessed at 50 hpf by the total morphological score described in [32].
# The working concentrations for ZFET experiments were 0.1 μM, 0.5 μM, 1 μM, 2.5 μM and 5 μM for TCBZ studies and 0.5 μM, 1 μM, 2.5 μM, 5 μM, 10 μM and 50 μM for TCBZSO. The experiments with ABZ were performed including concentrations of 0.025 μM, 0.05 μM, 0.1 μM, 0.3 μM and 0.5 μM and for ABZSO they included 1 μM, 6 μM, 12 μM, 25 μM and 50 μM.
# [1] = parameters: method as in PMID 3824395; settings: 200mg/kg dose; cited from earlier work
# [2] = Plasma Cmax in humans after therapeutical TCBZ dose (literature); assay type: in vivo; settings: 10 mg/kg
# [3] = parameters: method as in PMID 20128898; settings: sheep, TCBZ 10 mg/kg; calculated from ref 41; read-out: TCBZSO Cmax; cited from earlier work
# [4] = parameters: method as in PMID 7905812; settings: rabbits, single 10 mg/kg TCBZ dose; transformed to μM from ref 40; read-out: TCBZSO maximum plasma concentration (Cmax); cited from earlier work
# [5] = parameters: method as in PMID 21337234; settings: cows, 12 mg/kg dose; calculated from ref 39; read-out: TCBZSO Cmax; cited from earlier work
smiles,measurement,setting,value
"CSc1nc2cc(Cl)c(Oc3cccc(Cl)c3Cl)cc2[nH]1 [TCBZ, 5-chloro-6-(2,3-dichlorophenoxy)-2-(methylthio)benzimidazole]",Frequency of dysmorphogenesis: Developmental delay,zebrafish embryos; 0.1 µM,6.7%
same,Frequency of dysmorphogenesis: Flexion,zebrafish embryos; 0.1 µM,3.3%
same,Frequency of dysmorphogenesis: Head-body pigmentation,zebrafish embryos; 0.1 µM,6.7%
same,Lethality,"zebrafish embryos; 0.1 μM, 2-50 hpf",0%
same,Dysmorphogenic embryos,zebrafish embryos; 0.1 μM,6.7%
same,Morphological score,zebrafish embryos; 0.1 μM,34.8 ± 1.8
same,Frequency of dysmorphogenesis: Cardiac oedema,zebrafish embryos; 0.5 µM,13.3%
same,Lethality,"zebrafish embryos; 0.5 μM, 2-50 hpf",0%
same,Dysmorphogenic embryos,zebrafish embryos; 0.5 μM,13.3%
same,Morphological score,zebrafish embryos; 0.5 μM,34.8 ± 0.0
same,Adverse effects in zebrafish embryos,zebrafish embryos; 1 μM,did not present any adverse effects
same,Frequency of dysmorphogenesis: Brain necrosis,zebrafish embryos; 1 μM,10%
same,Frequency of dysmorphogenesis: Cardiac oedema,zebrafish embryos; 1 μM,10%
same,Frequency of dysmorphogenesis: Flexion,zebrafish embryos; 1 μM,6.7%
same,Lethality,"zebrafish embryos; 1 μM, 2-50 hpf",0%
same,Dysmorphogenic embryos,zebrafish embryos; 1 μM,13.3%
same,Morphological score,zebrafish embryos; 1 μM,35.8 ± 0.4
same,Frequency of dysmorphogenesis: Developmental delay,zebrafish embryos; 2.5 µM,50%
same,Frequency of dysmorphogenesis: Flexion,zebrafish embryos; 2.5 µM,20%
same,Frequency of dysmorphogenesis: Head-body pigmentation,zebrafish embryos; 2.5 µM,50%
same,Lethality,"zebrafish embryos; 2.5 μM, 2-50 hpf",0%
same,Dysmorphogenic embryos,zebrafish embryos; 2.5 μM,60 ^* %
same,Morphological score,zebrafish embryos; 2.5 μM,33.0 ± 3.4
same,Lethality,"zebrafish embryos; 5 μM, 2-50 hpf",100 ^* %
same,ZFET LOAEC dysmorphogenesis,zebrafish embryos; 2-50 hpf,2.5 µM
same,ZFET LOAEC embryonic differentiation (total morphological score),zebrafish embryos; 2-50 hpf,2.5 μM
same,ZFET LOAEC lethality,zebrafish embryos; 2-50 hpf,5 µM
same,Teratogenicity in vivo,[1],not teratogenic at a 200mg/kg dose [23]
same,"Plasma concentration, times lower than triclabendazole sulfoxide",[2],approximately 30 times
"C[S+]([O-])c1nc2cc(Oc3cccc(Cl)c3Cl)c(Cl)cc2[nH]1 (centres unmarked) [TCBZSO, Triclabendazole sulfoxide]",Lethality,"zebrafish embryos; 0.5 μM, 2-50 hpf",17%
same,Dysmorphogenic embryos,zebrafish embryos; 0.5 μM,0%
same,Morphological score,zebrafish embryos; 0.5 μM,36.0 ± 0.0
same,Lethality,"zebrafish embryos; 1 μM, 2-50 hpf",10%
same,Dysmorphogenic embryos,zebrafish embryos; 1 μM,0%
same,Morphological score,zebrafish embryos; 1 μM,36.0 ± 0.0
same,Lethality,"zebrafish embryos; 2.5 μM, 2-50 hpf",20%
same,Dysmorphogenic embryos,zebrafish embryos; 2.5 μM,0%
same,Morphological score,zebrafish embryos; 2.5 μM,36.0 ± 0.0
same,Lethality,"zebrafish embryos; 5 μM, 2-50 hpf",7%
same,Dysmorphogenic embryos,zebrafish embryos; 5 μM,0%
same,Morphological score,zebrafish embryos; 5 μM,36.0 ± 0.0
same,Lethality,"zebrafish embryos; 10 μM, 2-50 hpf",35 ^* %
same,Dysmorphogenic embryos,zebrafish embryos; 10 μM,0%
same,Morphological score,zebrafish embryos; 10 μM,36.0 ± 0.0
same,Lethality,"zebrafish embryos; 50 μM, 2-50 hpf",100 ^* %
same,ZFET LOAEC dysmorphogenesis,zebrafish embryos; 2-50 hpf,No dysmorphogenesis were observed; also recorded: not dysmorphogenic
same,ZFET LOAEC lethality,zebrafish embryos; 2-50 hpf,10 µM
same,ZFET NOAEC,zebrafish embryos; 2-50 hpf,5 µM
same,"Embryolethal concentration, times lower than ABZSO concentrations killing the embryos",zebrafish embryos; ZFET,five
same,"Embryolethal concentration, times lower than ABZSO concentrations producing malformations",zebrafish embryos; ZFET,2.5 times
same,Cmax,[3],37.3 µM
same,Cmax,[4],33 µM
same,Cmax,[5],71.3 µM
